Data taken from patent publication US20230212517A1, “METHODS FOR GENERATING HEMATOPOIETIC STEM CELLS” (The Brigham and Women's Hospital, Inc., priority 2018, published 2023).

Tests used:
[1] = system: bone marrow-derived Cd71+ Ter119+ sorted (donor) erythroid cells; assay: qRT-PCR of globin transcripts in donor erythroid cells of primary transplant; format: in vivo, mouse; conditions: primary transplant of treated E11.5 AGM
Experimental: (§1) Pulsating blood vessels like conditions were stimulated in vitro using FLEXCELL FX-4000 cell stretching bioreactor machine. To analyze roles of pharmacological targets in regulating the endothelial-to-HSC transition, mouse embryo-derived AGM or whole mouse embryo were exposed ex vivo with biomechanical stretching, chemicals, or drugs. Next, hematopoietic colony formation assays were performed by incubating mouse AGM-derived cells in StemCell M3434 media for seven days. Serial transplantation of AGM-derived HSCs in lethally irradiated SJL mice were performed. The stem cell frequency upon biomechanical stretching was analyzed using a limiting dilution assay. To characterize properties of AGM-HSC-derived blood cells in primary transplants, percentage chimerism and reconstitution was measured using FACS, globin transcripts were analyzed using quantitative reverse transcriptase-PCR, myeloperoxidase amount was measured using PICOKINE ELISA kit, TCR-β rearrangement was analyzed using PCR for TCR-β locus, pre-immune IG detection was analyzed using Thermo-Fisher Mouse Ig Isotyping kit, and delayed-type hypersensitivity was analyzed by injecting sheep RBC (Rockland Immunochemicals) in the footpad of pre-sensitized mice.
FACS was used to sort erythroid precursors (Cd45.2^+, Ter119^+, Cd71^+) from the unlysed bone marrow isolated from AGM-transplanted mice. […]

[2] = system: cd41:eGFP+ HSCs emerging from flk1:mCherry+ endothelial cells; assay: Time-lapse confocal imaging of cd41:eGFP+ HSCs emerging from flk1:mCherry+ endothelial cells in transgenic embryos; format: in vivo, zebrafish; conditions: 26-42 hpf
Experimental: Mice were purchased Cd45.2 (C57BL6/J) and Cd45.1 (SJL) from The Jackson Laboratory and zebrafish morpholinos from GeneTools. Microangiography was performed by injecting fluorescent-labeled dextran dye in the atrium of zebrafish heart and its passage was recorded using live imaging. Immunostaining of zebrafish heart and mouse AGM were analyzed using an inverted fluorescent microscope. Cardiac tamponade, heart rate, and pulse frequency were analyzed in zebrafish embryos using bright field imaging or time-lapse confocal microscopy. The movement of red blood cells in blood vessels was analyzed as well as the endothelial-to-HSC transition in zebrafish transgenic embryos using time-lapse confocal imaging.
Zebrafish embryos were treated with the following chemical modulators in E3 fish media: 100 uM L-NAME (Fisher Scientific), 50 uM Digitoxigenin (Sigma), 25-50 uM Yoda1 (Cayman Chemical), 1 uM Nanaomycin (Nana; Fisher Scientific), 100 uM Gadolinium chloride (GdCl3; Sigma), 5-10 uM 4α-phorbol 12, 13-didecanaote (4Apdd; Sigma), or GSK205 (10 uM).
cd41: eGFP were crossed with flk1:mCherry zebrafish and flk1:mCherry with lcr:eGFP zebrafish and injected morpholino in their transgenic embryos. Transgenic embryos were mounted in low-melting-point agarose and a spinning-disk confocal microscope was used to perform time-lapse confocal imaging of cd41:eGFP^+ HSCs emerging from flk1^+ endothelium from 30 to 42 hpf. The relative movement of lcr:eGFP^+ red blood cells was analyzed in the context of flk1:mCherry^+ endothelium. We performed image analysis using IMARIS (Bitplane) software.

Dnmt3b = Dnmt3b protein level in nuclear fractions of E11.5 AGM cells (EPIQUIK assay kit); format: cell-based, mouse; conditions: nuclear fractions of treated E11.5 AGM cells
Experimental: RNA-sequencing analyses were performed to measure gene expression patterns in mouse AGM treated with cyclic strain or pharmacological modulators. Using computational algorithms, hierarchical clustering was performed of differentially expressed genes as well as measured their overrepresented biological processes and pathways. Gene expression clusters of differentially expressed genes were analyzed and their mean expression level across cell populations compared. Next, Venn comparison of up- and down-genes was constructed to analyze candidate(s) important for cyclic strain- or pharmacological modulator(s)-mediated the endothelial-to-HSC transition. Furthermore, Dnmt3b and Dnmt3a protein expressions were analyzed in nuclear fractions of mouse AGM cells using EPIQUIK methyltransferase assay kits. Data are presented as mean±s.d. unless otherwise noted. Statistical analyses were performed by paired or un-paired Student's t-tests. Significance was set at P<0.05.
Nuclear extracts from AGM explants were harvested using an EPIQUIK Nuclear Extraction Kit (Epigentek Group Inc.). Dnmt3b and Dnmt3a protein levels were analyzed using a colorimetric EPIQUIK methyltransferase Assay Kit (Epigentek Group Inc.), according to the manufacturer's instructions. Concentration of Dnmt3b and Dnmt3a is relative to 1 μg of nuclear extract proteins.

[3] = system: primary transplant (recipient) mice; assay: Delayed-type hypersensitivity assay in primary transplant mice; format: in vivo, mouse; conditions: primary transplant of treated E11.5 AGM
Experimental: as §1, with “mice. […]” for “mice.”

Clc1cccc(Cl)c1CSc1nnc(-c2cnccn2)s1 [Yoda1, 2-[5-[[(2,6-Dichlorophenyl)methyl]thio]-1,3,4-thiadiazol-2-yl]-pyrazine]
hemoglobin type (β-major adult, εγ and β-H1 embryonic) expressed in donor erythroid cells [1]: reconstitutes to red cells containing adult hemoglobin | HSC formation (endothelial-to-HSC transition) ([2]; control embryos): stimulates HSC formation | HSC formation (endothelial-to-HSC transition) ([2]; sih-MO embryos): rescues HSC formation | Dnmt3b protein expression level (Dnmt3b): specifically stimulates Dnmt3b protein expression levels | T-cell mediated immune response (footpad, sheep RBC challenge) [3]: possess T-cell mediated immune response
